This note sets out measurements from patent US20230390274A1 (EPIRIUM BIO INC., priority 2020, published 2023).

The target of this assay is 15-PGDH/HPGD (Homo sapiens (Human), UniProt P15428). In words: hPGDH inhibitor screening biochemical assay. The procedure: A hydroxyprostaglandin dehydrogenase inhibition screening biochemical assay can be performed to assess the synthesized inhibitors provided herein. Provided herein is an exemplary biochemical assay for hPGDH inhibitor screening.
The in vitro biochemical assay can be performed in white, 384 plates in total 20 μl reaction volume consisting of 10 nM of 15-PGDH/HPGD (R&D System #5660-DH), 15 μM Prostaglandin E2 (Sigma, Cat #P5640-10MG) and 0.25 mM β-Nicotinamide adenine dinucleotide sodium salt (Sigma, Cat #N0632-5G) made in reaction buffer (50 mM Tris-HCl, pH 7.5, 0.01% Tween 20) at 10-point dose response curve for test/tool compounds. Briefly, 5 μl (4×) of compounds solution and 5 μl (final concentration, 10 nM) of enzyme solution is added to white 384 well plates and incubated for 10 mins at 37° C. 5 μl (4×) of Prostaglandin E2 and 5 μl (4×) of β-Nicotinamide adenine dinucleotide sodium salt is added to the wells and incubated for 10 mins at rt. Fluorescence is recorded at ex/em=340 nm/485 nm. The percentage (%) inhibition of enzyme activity was determined relative to […] (1% DMSO) and IC50 was calculated using GraphPad prism software (four parameter-variable slope equation).

Where [1] appears, read: Table 1, PGDH inhibitors with a 6-5 ring core, read-out: hPGDH: IC50.
Where [2] appears, read: Table 2, PGDH inhibitors with a phenyl core, read-out: hPGDH: IC50.
Setting [3] is: 10 nM 15-PGDH/HPGD, 15 μM PGE2, 0.25 mM NAD, read-out: hPGDH: Average IC50.

Like-named read-outs stand apart in the source and are kept apart here.

Chain of 15-PGDH/HPGD (P15428 whole entry): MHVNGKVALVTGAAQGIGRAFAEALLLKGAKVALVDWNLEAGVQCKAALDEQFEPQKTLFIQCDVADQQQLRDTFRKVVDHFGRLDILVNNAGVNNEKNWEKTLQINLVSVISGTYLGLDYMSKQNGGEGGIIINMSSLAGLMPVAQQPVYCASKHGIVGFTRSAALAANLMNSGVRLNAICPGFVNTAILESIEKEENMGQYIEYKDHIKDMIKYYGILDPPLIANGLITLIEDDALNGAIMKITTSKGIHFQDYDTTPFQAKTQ

What is called IC50 is the midpoint of a concentration-inhibition curve. Consider `O=C(c1ccc2c(c1)ncn2-c1cccc(Cl)c1)N1CCC(F)C1` (stereo not drawn), for which the IC50 under setting [1] stood at 158 nM.
Same read-out and setting: for `O=C(c1ccc2c(c1)ncn2-c1cccc(Cl)c1)N1CCCC1` the value was 274 nM.
Same read-out and setting: to `NC(=O)Cc1nc2cc(C(=O)N3CCCCC3)ccc2n1-c1cccc(Cl)c1` belongs 576 nM; to `O=C(c1ccc2c(c1)ncn2-c1cccc(Cl)c1)N1CC2CC2C1` (stereo not drawn), 116 nM; to `COc1ccc(-n2c(C3CC3)nc3cc(C(=O)N4CCCCC4)ccc32)cc1`, 197 nM.
Take `COc1cccc(C(=O)Nc2ccc(C(=O)N3CCCCC3)cc2)c1`: the IC50 under setting [2] came out at 135 nM.
Same read-out and setting: to `O=C(Nc1ccc(C(=O)N2CCCCC2)cc1)c1ccccc1Cl` belongs 277 nM; to `COc1ccccc1NC(=O)c1ccc(C(=O)N2CCCCC2)cc1`, 593 nM.
On to `N#Cc1ccc(-n2ccc3cc(C(=O)N4CC[C@H](F)C4)cnc32)cc1` (single isomer, unassigned) [A-340], for which, under setting [3], the IC50 is < 100 nM.
On the same count and under the same terms, to `N#Cc1ccc(-n2ccc3cc(C(=O)N4CC[C@@H](F)C4)cnc32)cc1` (single isomer, unassigned) [A-341] belongs < 100 nM.
For the compound `O=C(c1ccc2c(c1)ncn2-c1cccc(Cl)c1)N1CC2CCCC2C1` (stereo not drawn) [A-1], the half-maximal inhibitory concentration (IC50) under setting [3] was < 100 nM.
The same measure, in the same setting: for `O=C(c1ccc2c(c1)ncn2-c1cccc(Cl)c1)N1CCCCCC1` [A-2] the value was < 100 nM; for `O=C(c1ccc2c(c1)ncn2-c1cccc(Cl)c1)N1CC2CCC(C2)C1` [A-4], < 100 nM; for `O=C(c1ccc2c(c1)ncn2-c1cccc(Cl)c1)N1CC2(CCC2)C1` [A-5], < 100 nM.
The same measure, in the same setting: for `O=C(c1ccc2c(c1)ncn2-c1cccc(Cl)c1)N1CCCCC1` [A-6] the value was < 100 nM.
The same measure, in the same setting: to `O=C(c1ccc2c(c1)ncn2-c1cccc(Cl)c1)N1CCC(F)(F)CC1` [A-8] belongs < 100 nM; to `O=C(c1ccc2c(c1)ncn2-c1cccc(Cl)c1)N1CCC(F)(F)C1` [A-10], ≥ 1000 nM; to `O=C(c1ccc2c(c1)ncn2-c1cccc(Cl)c1)N1CCC(Cl)C1` (stereo not drawn) [A-12], < 100 nM.
Turning to `O=C(c1ccc2c(c1)ncn2-c1cccc(Cl)c1)N1CCC(O)C1` (stereo not drawn) [A-13], the concentration for half-maximal inhibition (IC50) under setting [3] was ≥ 1000 nM.
The same measure, in the same setting: for `O=C(Nc1ccccc1)c1ccc2c(c1)ncn2-c1cccc(Cl)c1` [A-16] the value was ≥ 1000 nM.
As for `O=C(c1ccc2c(c1)ncn2-c1cccc(Cl)c1)N1CC(F)C1` [A-20], under setting [3], the IC50 was < 100 nM.
Consider `O=C(c1ccc2c(c1)ncn2-c1cccc(Cl)c1)N1CC(Cl)C1` [A-21], for which, under setting [3], the IC50 was < 100 nM.
Same read-out and setting: to `CN(C(=O)c1ccc2c(c1)ncn2-c1cccc(Cl)c1)C1CC1` [A-23, 1-(3-chlorophenyl)-N-cyclopropyl-N-methyl-1H-benzo[d]imidazole-5-carboxamide] belongs ≥ 1000 nM; to `O=C1CCN(C(=O)c2ccc3c(c2)ncn3-c2cccc(Cl)c2)C1` [A-24, 1-(1-(3-chlorophenyl)-1H-benzo[d]imidazole-5-carbonyl)pyrrolidin-3-one], ≥ 1000 nM.
Still for that read-out and setting: to `CCOC(=O)c1nc2cc(C(=O)N3CCCCC3)ccc2n1-c1cccc(Cl)c1` [A-26] belongs < 100 nM; to `CCOC(=O)Cc1nc2cc(C(=O)N3CCCCC3)ccc2n1-c1cccc(Cl)c1` [A-27], < 100 nM; to `Cc1nc2cc(C(=O)N3CCCCC3)ccc2n1-c1cccc(Cl)c1` [A-28], < 100 nM.
Same read-out and setting: for `CCOC(=O)CCc1nc2cc(C(=O)N3CCCCC3)ccc2n1-c1cccc(Cl)c1` [A-29] the value was < 100 nM; for `O=C(O)CCc1nc2cc(C(=O)N3CCCCC3)ccc2n1-c1cccc(Cl)c1` [A-30], < 100 nM; for `NC(=O)CCc1nc2cc(C(=O)N3CCCCC3)ccc2n1-c1cccc(Cl)c1` [A-31], < 100 nM.
For the compound `COc1ccc(-n2cnc3cc(C(=O)N4CCCCC4)ccc32)cc1` [A-32], under setting [3], the IC50 was < 100 nM.
Take `COc1ccc(-n2cnc3cc(C(=O)N4CCC(F)CC4)ccc32)cc1` [A-33]: the IC50 under setting [3] is < 100 nM.
Same read-out and setting: to `COc1ccc(-n2cnc3cc(C(=O)N4CCCCC4)ccc32)nc1` [A-35] belongs < 100 nM; to `COc1ccc(-n2cnc3cc(C(=O)N4CCCCC4)ccc32)cc1Cl` [A-36, (1-(3-chloro-4-methoxyphenyl)-1H-benzo[d]imidazol-5-yl)(piperidin-1-yl)methanone], < 100 nM.
Still for that read-out and setting: for `O=C(c1ccc2c(c1)ncn2-c1ccc2c(c1)OCO2)N1CCCCC1` [A-37] the value was < 100 nM; for `COc1ccc(-n2cnc3cc(C(=O)N4CCC(F)CC4)ccc32)nc1` [A-38], < 100 nM.
On the same count and under the same terms, to `O=C(c1ccc2c(c1)ncn2-c1ccc(O)c(Cl)c1)N1CCCCC1` [A-39, (1-(3-chloro-4-hydroxyphenyl)-1H-benzo[d]imidazol-5-yl)(piperidin-1-yl)methanone] belongs < 100 nM; to `O=C(c1cnc2c(ccn2-c2cccc(Cl)c2)c1)N1CCCCC1` [A-40], < 100 nM.
For the compound `O=C(c1cnc2c(ccn2-c2ccccn2)c1)N1CCCCC1` [A-41], under setting [3], the IC50 was < 100 nM.
The same measure, in the same setting: to `O=C(c1cnc2c(ccn2-c2cccnc2)c1)N1CCCCC1` [A-42] belongs < 100 nM; to `O=C(c1cnc2c(ccn2-c2ccncn2)c1)N1CCCCC1` [A-43], < 100 nM.
As to `O=C(c1cnc2c(ccn2-c2cncnc2)c1)N1CCCCC1` [A-44], the IC50 under setting [3] was < 100 nM.
On the same count and under the same terms, to `O=C(c1cnc2c(ccn2-c2cnccn2)c1)N1CCCCC1` [A-45] belongs < 100 nM.
The same measure, in the same setting: to `O=C(c1cnc2c(ccn2-c2cscn2)c1)N1CCCCC1` [A-47] belongs < 100 nM; to `O=C(c1cnc2c(ccn2-c2cn[nH]c2)c1)N1CCCCC1` [A-48], < 100 nM; to `Cn1cc(-n2ccc3cc(C(=O)N4CCCCC4)cnc32)cn1` [A-49], < 100 nM.
The same measure, in the same setting: to `O=C(c1cnc2c(ccn2-c2cnccn2)c1)N1CCC(F)CC1` [A-50] belongs < 100 nM; to `O=C(c1cnc2c(ccn2-c2ccncn2)c1)N1CCC(F)CC1` [A-53], < 100 nM.
Consider `O=C(c1cnc2c(ccn2-c2ccc(O)nc2)c1)N1CCC(F)CC1` [A-55], for which, under setting [3], the IC50 was < 100 nM.
Same read-out and setting: to `O=C(c1cnc2c(ccn2-c2cccnc2)c1)N1CCC(F)CC1` [A-56] belongs < 100 nM; to `O=C(c1cnc2c(c1)c(Cl)cn2-c1cccnc1)N1CCC(F)CC1` [A-57], < 100 nM.
Still for that read-out and setting: to `Cn1cc(-n2ccc3cc(C(=O)N4CCC(F)CC4)cnc32)cn1` [A-58] belongs < 100 nM; to `Cn1cc(-n2cc(Cl)c3cc(C(=O)N4CCC(F)CC4)cnc32)cn1` [A-59], < 100 nM.
Same read-out and setting: for `O=C(c1cnc2c(c1)c(Cl)cn2-c1cncnc1)N1CCC(F)CC1` [A-60] the value was < 100 nM; for `COc1ccc(-n2ccc3cc(C(=O)N4CCC(F)CC4)cnc32)cn1` [A-61], < 100 nM.
Turning to `O=C(c1cnc2c(c1)ncn2-c1cccc(Cl)c1)N1CCCCC1` [A-62], the IC50 under setting [3] is < 100 nM.
On the same count and under the same terms, for `COc1ccc(-n2cnc3cc(C(=O)N4CCCCC4)cnc32)cc1` [A-63] the value was < 100 nM; for `COc1ccc(-n2cnc3cc(C(=O)N4CCC(F)CC4)cnc32)cc1` [A-64], < 100 nM.
Consider `COc1ccc(-n2cnc3cc(C(=O)N4CCC(F)(F)CC4)cnc32)cc1` [A-65], for which the IC50 under setting [3] was < 100 nM.
Same read-out and setting: to `COc1ccc(-n2c(NC(C)=O)nc3cc(C(=O)N4CCC(F)CC4)cnc32)cc1` [A-68] belongs ≥ 1000 nM.
The same measure, in the same setting: to `O=C(c1ccc(COc2ccccc2Br)cc1)N1CCCCC1` [A-69] belongs < 100 nM; to `O=C(c1ccc(COc2ccccc2Cl)cc1)N1CCCCC1` [A-70], < 100 nM.
The same measure, in the same setting: to `COc1cc(C(=O)N2CCCCC2)ccc1COc1ccccc1Cl` [A-71] belongs < 100 nM.
Take `O=C(c1ccc(CSc2ccccc2Cl)cc1)N1CCCCC1` [A-72]: the IC50 under setting [3] is < 100 nM.
Same read-out and setting: for `O=C(c1ccc(COc2ccccc2Cl)cn1)N1CCC(F)CC1` [A-76] the value was ≥ 1000 nM; for `O=C(c1ccc(COc2ccccc2-c2ccccn2)cc1)N1CCCCC1` [A-77], < 100 nM; for `O=C(c1ccc(COc2ccccc2-c2cnc[nH]2)cc1)N1CCCCC1` [A-78], < 100 nM.
On the same count and under the same terms, to `O=C(c1ccc(COc2ccccc2-c2cncs2)cc1)N1CCCCC1` [A-79] belongs < 100 nM; to `COc1ccccc1C(=O)Nc1ccc(C(=O)N2CCCCC2)cc1` [A-80], < 100 nM.
Still for that read-out and setting: for `COc1ccccc1C(=O)N(C)c1ccc(C(=O)N2CCCCC2)cc1` [A-81] the value was ≥ 1000 nM; for `O=C(c1ccc2c(ccn2-c2cccc(Cl)c2)c1)N1CCCCC1` [A-87], < 100 nM.
As for `O=C(c1ccc2c(c1)c(Cl)cn2-c1cccc(Cl)c1)N1CCCCC1` [A-88], the IC50 under setting [3] was < 100 nM.
As to `O=C(c1ccc2c(-c3cccc(Cl)c3)c[nH]c2c1)N1CCCCC1` [A-89, (3-(3-chlorophenyl)-1H-indol-6-yl)(piperidin-1-yl)methanone], the IC50 under setting [3] is < 100 nM.
Still for that read-out and setting: for `Cn1cc(-c2cccc(Cl)c2)c2ccc(C(=O)N3CCCCC3)cc21` [A-90, (3-(3-chlorophenyl)-1-methyl-1H-indol-6-yl)(piperidin-1-yl)methanone] the value was < 100 nM; for `O=C(c1ccc2c(c1)CCCN2c1cccc(Cl)c1)N1CCCCC1` [A-91, (1-(3-chlorophenyl)-1,2,3,4-tetrahydroquinolin-6-yl)(piperidin-1-yl)methanone], < 100 nM.
